Marks after values point to notes of the source that are not given here.
How the values were obtained:
Format in all cases: in vivo
Conditions in all cases: 100 = 100% disease control
Botrytis cinerea = assay: Test C: tomato Botrytis on tomato seedlings, sprayed the day before inoculation, visual disease rating
Summary of the method: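 Disease ratings refer to tomato seedlings treated by run-off spraying with compound suspensions, mostly 200 ppm (500 g/ha equivalent) and in marked cases 40 ppm. Carrier: acetone/purified water 50/50 with 250 ppm polyhydric alcohol ester surfactant, after predissolving in acetone.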

Alternaria solani = assay: Test D: tomato early blight, sprayed the day before inoculation, visual disease rating
Summary of the method: (§1)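 Acetone solution (3% of final volume) of each compound is suspended in 50/50 acetone/water with 250 ppm Trem® 014. Plants are sprayed to run-off at 200 ppm, equivalent to 500 g/ha, or at 40 ppm for starred values.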

Septoria nodorum = assay: Test F: wheat glume blotch on wheat seedlings, sprayed the day before inoculation, visual disease rating
Summary of the method: as §1

Septoria tritici = assay: Test G: wheat leaf blotch on wheat seedlings, sprayed the day before inoculation, visual disease rating
Summary of the method: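 Compounds dissolved in acetone (3% of final volume), then suspended in 50/50 acetone/water with 250 ppm Trem® 014 and sprayed to run-off on seedlings at 200 ppm (≈500 g/ha) or 40 ppm where marked. Inoculation with spores followed next day; visual rating after 48 h saturated at 24° C plus 19 days at 20° C.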

[1] = test system: Puccinia recondita f. sp. tritici; assay: Test I: wheat leaf rust on wheat seedlings, sprayed the day before inoculation, visual disease rating
Summary of the method: as §1

[2] = test system: Erysiphe graminis f. sp. tritici; assay: Test J: wheat powdery mildew on wheat seedlings, sprayed the day before inoculation, visual disease rating
Summary of the method: as §1

[3] = 200 ppm, 0 = no control relative to controls

SMILES	Test C disease control rating (Botrytis cinerea; [3]) [%]	Test D disease control rating (Alternaria solani; [3]) [%]	Test F disease control rating (Septoria nodorum; [3]) [%]	Test G disease control rating (Septoria tritici; [3]) [%]	Test I disease control rating [1, 3] [%]	Test J disease control rating [2, 3] [%]	further results
N#Cc1cc(F)c(-c2c(Cl)nc(Br)n2-c2ccc(Cl)cc2)c(F)c1 [compound 201]							Test C disease control rating (Botrytis cinerea; 200 ppm, 0 = no control): 99%; Test D disease control rating (Alternaria solani; 200 ppm, 0 = no control): 100%; Test F disease control rating (Septoria nodorum; 200 ppm, 0 = no control): 100%; Test G disease control rating (Septoria tritici; 200 ppm, 0 = no control): 98%; Test I disease control rating ([1]; 200 ppm, 0 = no control): 96%; Test J disease control rating ([2]; 200 ppm, 0 = no control): 100%
Cc1nn(C)c(-c2c(F)cccc2F)c1-c1ccc(Cl)c(F)c1 [compound 68]	0	0	0	40	9	99	
Cc1nn(C)c(-c2c(F)cccc2Cl)c1-c1cccc(F)c1 [compound 62]	94	0	0	5	0	81	
Fc1ccc(F)c(-c2c(Cl)ncn2-c2ccc(Cl)cc2)c1Cl [compound 74]	98	96	31	98	99	99	
CCc1ccc(-n2c(Br)nc(Cl)c2-c2c(F)ccc(OC)c2F)cc1 [compound 441]	97	99	0	97	97	99	
COc1cc(F)c(-c2c(Cl)nc(Br)n2-c2cccc(F)c2)c(F)c1 [Compound 256, 2-bromo-4-chloro-5-(2,6-difluoro-4-methoxyphenyl)-1-(3-fluorophenyl)-1H-imidazole]							pest or weed control at 200 ppm (Botrytis cinerea; Botrytis cinerea, 120 h, 200 ppm, 0 = no control): 100%; pest or weed control at 200 ppm (Alternaria solani; Alternaria solani, 168 h, 200 ppm, 0 = no control): 100%; pest or weed control at 200 ppm (Septoria nodorum; Parastagonospora nodorum, 264 h, 200 ppm, 0 = no control): 100%; pest or weed control at 200 ppm (Septoria tritici; Zymoseptoria tritici, 504 h, 200 ppm, 0 = no control): 97%; pest or weed control at 200 ppm ([1]; Puccinia recondita, 168 h, 200 ppm, 0 = no control): 100%; pest or weed control at 200 ppm ([2]; Blumeria graminis, 168 h, 200 ppm, 0 = no control): 99%
Fc1ccc(F)c(-c2c(Cl)nc(Br)n2-c2ccc(Cl)c(Cl)c2)c1F [compound 440]	99	100	98	95	98	99	
Cc1nc(Cl)c(Cc2c(F)cccc2F)n1-c1ccc(Cl)cc1 [compound 258]							Test C disease control rating (Botrytis cinerea; 200 ppm, 0 = no control): 99%; Test D disease control rating (Alternaria solani; 200 ppm, 0 = no control): 0%; Test F disease control rating (Septoria nodorum; 200 ppm, 0 = no control): 42%; Test G disease control rating (Septoria tritici; 200 ppm, 0 = no control): 87%; Test I disease control rating ([1]; 200 ppm, 0 = no control): 97%; Test J disease control rating ([2]; 200 ppm, 0 = no control): 78%
COc1cc(F)c(-c2c(-c3ccc(Cl)cc3)c(C)nn2C)c(F)c1 [compound 77]	98	100	82	97	99	100	
COc1cc(F)c(-c2c(Br)nc(OC)n2-c2ccc(Cl)cc2)c(F)c1 [compound 96]							Test C disease control rating (Botrytis cinerea; 40 ppm (marked *)): 98* %; Test D disease control rating (Alternaria solani; 40 ppm (marked *)): 100* %; Test F disease control rating (Septoria nodorum; 40 ppm (marked *)): 97* %; Test G disease control rating (Septoria tritici; 40 ppm (marked *)): 97* %; Test I disease control rating ([1]; 40 ppm (marked *)): 97* %; Test J disease control rating ([2]; 40 ppm (marked *)): 99* %
